In US11964935B2, “Gingerol derivative having inhibitory activity against biofilm formation and pharmaceutical composition comprising same as effective ingredient for preventing or treating biofilm-caused infection symptom” (Korea University Research and Business Foundation, Sejong …, priority 2017, dated 2024):
“Also recorded” adds a separate entry of the source.

Key:
LasR = target: T1, LasR (Pseudomonas aeruginosa, UniProt P25084); test: LasR reporter gene assay (E. coli reporter strain, luminescence, competition with OdDHL); type: cell-based; details: compound 1 μM or 10 μM in the presence of 1 μM OdDHL (compound 1a)
T1 construct: expressed in transfected cells; host or cells: E. coli DH5α (printed DHSα) co-transformed with pJN105L and pSC11
Procedure: This assay was conducted by modifying a previously reported method. E. coli DHSα co-transformed with two plasmids, pJN105L (LasR expression plasmid) and pSC11 (lasI::lacZ fusion plasmid), was used as a bioassay reporter strain. Overnight culture of the reporter strain with 10 μg/mL gentamicin and 50 μg/mL ampicillin was diluted in the Luria-Bertani (LB) medium (1:100). Then, the reporter strain (optical density at 595 nm [OD595] was 0.3) mixed with either a positive control or the synthesized compound was incubated with OdDHL (Sigma-Aldrich, St. Louis, MO., USA) and 0.4% arabinose (Sigma-Aldrich). After incubation at 37° C. for 1.5 h, OD595 was measured on a VICTOR ×5 multimode plate reader (PerkinElmer, Waltham, Mass., USA). The β-galactosidase activity was determined using a Tropix plus kit (Applied Biosystems, USA), and luminescence was measured on the VICTOR ×5 multimode plate reader. RLU ratio was quantified by dividing luminescence with OD595.
LasR-binding affinity of the synthesized gingerols (compounds 4-10) with various alkyl chain lengths was determined by measuring luminescence of an E. coli reporter strain. The reporter strain carried two plasmids, pJN105L (LasR expression plasmid) (Lee, J. H.; Lequette, Y.; Greenberg, E. P. Activity of purified QscR, a Pseudomonas aeruginosa orphan quorum-sensing transcription factor. Mol. Microbiol. 2006, 59, 602609.) and pSC11 (las1::lacZ fusion plasmid) (Chugani, S. A.; Whiteley, M.; Lee, K. M.; D'Argenio, D.; Manoil, C.; Greenberg, E. P. QscR, a modulator of quorum-sensing signal synthesis and virulence in Pseudomonas aeruginosa. Proc. Natl. Acad. Sci. U.S.A. 2001, 98, 27522757.), which enabled assay of competitive binding of OdDHL with each gingerol derivative 4-10. Antagonistic activities of the synthesized compounds at 1 μM or 10 μM were determined by measuring luminescence in the presence of 1 μM OdDHL (compound 1a) and presented as relative luminescence unit (RLU) ratio. Three compounds (compounds 1b, 1c, and 1d) served as positive controls. […] Just as the LasR inhibition, inhibition of biofilm formation also strengthened as the carbon chain was extended at 10 μM ((B) of FIG. 3). However, inhibition of biofilm formation decreased with 9-gingerol (compound 9) and 10-gingerol (compound 10) at 100 μM ((C) of FIG. 3) because of increased bacterial growth inhibition. […] This effect may be due to the fact that compounds 9 and 10 act as a surfactant, which inhibits bacterial growth. Agonistic activities of compounds 4-10 in an E. coli reporter assay system in the absence of OdDHL were next examined.

P. aeruginosa PA14 [1] = test: Static biofilm formation assay; type: cell-based, Pseudomonas aeruginosa; details: 10 μM, 24 h, static
Procedure: Overnight culture of P. aeruginosa PA14 (OD595=1.0) was diluted (1:20) with the AB medium (300 mM NaCl, 50 mM MgSO4, 0.2% vitamin-free casamino acids, 10 mM potassium phosphate, 1 mM L-arginine, and 1% glucose, pH 7.5) (1:20) containing with either positive controls or synthesized compounds (0-100 μM). The dilutions were aliquoted into borosilicate bottles, and the bottles were incubated at 37° C. for 24 h without agitation. After that, OD595 of the cell suspension was measured on the VICTOR ×5 multimode plate reader. The biofilm cells attached to the bottle were washed two times with phosphate buffered saline (PBS; 137 mM NaCl, 2.7 mM KCl, 10 mM Na2HPO4, and 2 mM KH2PO4, pH 7.2) and stained with 0.1% crystal violet for […] Next, the stained biofilm cells were eluted with 100% ethyl alcohol, and OD540 was measured on the VICTOR ×5 multimode plate reader. The biofilm formation was quantified by dividing OD540 with OD595.

P. aeruginosa PA14 [2] = test: Dynamic biofilm formation assay (drip-flow reactor, CLSM); type: cell-based, Pseudomonas aeruginosa; details: 48 h drip-flow reactor
Procedure: Glass slides were dipped into a Petri dish containing 2 mL of a P. aeruginosa PA14 suspension (OD595=1.0) and 18 mL of the AB medium, followed by incubation at 37° C. for 24 h to let the cells adhere to the slides. The slides were then inserted into a drip-flow reactor (DFR-110, BioSurface, Mont., USA). The AB medium with either a positive control or the synthesized compound (0-10 μM) was fed into the reactor continuously via a peristaltic pump (Masterflex C/L tubing pumps, Cole-Parmer, IL, USA) at 0.3 mL/min After operation of the reactor at 37° C. for 48 h, the cells on the slides were washed two times with PBS. The biofilm cells were stained with fluorescein isothiocyanate-labeled type IV ConA (Sigma-Aldrich) and SYPRO Ruby (Ruby, Invitrogen, Carlsbad, CA, USA) for 15 min, respectively. CLSM images were captured via a 20× objective lens (W N-Achroplan 20×/0.5 W [DIC] M27) with green fluorescence (ConA, excitation wavelength of 490 nm, emission wavelength of 525 nm) and red fluorescence (Ruby, excitation wavelength of 470 nm, emission wavelength of 618 nm) and were analyzed in the Zen 2011 software (Carl Zeiss, Jena, Germany). For quantification, biofilm volume (μm^3/μm^2) and average thickness (μm) were measured by means of Comstat2 in ImageJ.
A dynamic biofilm formation assay of compounds 41 and 42 was performed in a drip-flow reactor. Compound 1c served as a positive control, and DMSO served as a negative control. After 48 h drip-flow reactor operation, the biofilm was stained with Ruby and concanavalin A (ConA). Ruby (red) is a reagent for staining protein, and ConA (green) is for carbohydrate of biofilm. As shown in (A) of FIG. 8, the biofilm in the presence of DMSO formed with typical mushroom-like morphology. […] Biofilm volume and thickness with compound 41 were the lowest among the three groups (Table 1).

T1 sequence (P25084 whole entry): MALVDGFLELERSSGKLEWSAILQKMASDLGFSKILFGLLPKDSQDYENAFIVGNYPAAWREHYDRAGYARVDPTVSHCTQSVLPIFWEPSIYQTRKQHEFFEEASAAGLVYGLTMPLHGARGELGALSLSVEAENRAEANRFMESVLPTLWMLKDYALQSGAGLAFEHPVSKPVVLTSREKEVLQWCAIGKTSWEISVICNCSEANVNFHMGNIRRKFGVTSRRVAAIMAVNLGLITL

Compound | LasR-antagonistic activity / LasR-binding affinity (RLU ratio), in words (LasR) | Inhibition of biofilm formation, in words (P. aeruginosa PA14 [1]) | also measured
CCCCCCCC(O)CC(=O)CCc1ccc(O)c(OC)c1 (racemic) [Compound 8, 5-Hydroxy-1-(4-hydroxy-3-methoxyphenyl)dodecan-3-one] | slightly more potent |  | 
CCCCCCCC(O)CC(=O)CCc1ccc(O)c(OC)c1 [Compound 42S, (S)-8-gingerol] | almost the same as that of commercial (S)-8-gingerol |  | 
CCCCCC(O)CC(=O)CCc1ccc(F)cc1 (centres unmarked) [Compound 17a, 1-(4-Fluorophenyl)-5-hydroxydecan-3-one] | preserved the LasR-inhibitory activity | the most potent in the series | 
CCCCCCCC(O)CC(=O)CCc1ccc(O)cc1 (centres unmarked) [Compound 18b, 5-Hydroxy-1-(4-hydroxyphenyl)dodecan-3-one] | the most potent among the synthesized compounds | the most potent in the series; also recorded: stronger inhibition of biofilm formation than the known anti-biofilm agent (S)-6-gingerol | 
CCCCCC(O)CC(=O)CCc1ccc(F)c(OC)c1 (centres unmarked) [Compound 16a, 1-(4-Fluoro-3-methoxyphenyl)-5-hydroxydecan-3-one] | preserved the LasR-inhibitory activity | the most potent in the series | 
CCCCCCCCCC(=O)/C=C/c1ccc(O)c(OC)c1 [Compound 23b, (E)-1-(4-Hydroxy-3-methoxyphenyl)dodec-1-en-3-one] | significantly weaker LasR-binding affinity | less inhibition of biofilm formation | 
CCCCCCCCCC(=O)CCc1ccc(O)c(OC)c1 [Compound 24b, 1-(4-Hydroxy-3-methoxyphenyl)dodecan-3-one] | significantly weaker LasR-binding affinity | less inhibition of biofilm formation | 
CCCCCC(O)CC(=O)CCc1ccccc1 (centres unmarked) [Compound 15a, 5-Hydroxy-1-phenyldecan-3-one] | significantly decreased the LasR-antagonistic activity |  | 
CCCCCCCC(O)CC(=O)CCc1ccccc1 (centres unmarked) [Compound 15b, 5-Hydroxy-1-phenyldodecan-3-one] | relatively weaker than those of the other compounds |  | 
CCCCCC(O)CC(=O)CCc1cccc(OC)c1 (centres unmarked) [Compound 20a, 5-Hydroxy-1-(3-methoxyphenyl)decan-3-one] | decreased the LasR-antagonistic activity |  | 
CCCCCCCC(=O)CCc1ccc(O)c(OC)c1 [Compound 24a, 1-(4-Hydroxy-3-methoxyphenyl)decan-3-one] | significantly weaker LasR-binding affinity | less inhibition of biofilm formation | 
CCCCCCCC(O)CC(=O)CCc1cccc(OC)c1 (centres unmarked) [Compound 20b, 5-Hydroxy-1-(3-methoxyphenyl)dodecan-3-one] | relatively weaker than those of the other compounds |  | 
CCCCCC(O)CC(=O)CCc1ccc(O)c(OC)c1 (racemic) [Compound 6, 5-Hydroxy-1-(4-hydroxy-3-methoxyphenyl)decan-3-one] | slightly more potent |  | 
CCCCCCC[C@@H](O)CC(=O)CCc1ccc(O)c(OC)c1 [Compound 29, (R)-5-Hydroxy-1-(4-hydroxy-3-methoxyphenyl)dodecan-3-one] | intermediate LasR-affinity between compound 8 and compound 42 |  | 
CCCCCC(O)CC(=O)/C=C/c1ccc(O)c(OC)c1 (centres unmarked) [Compound 21a, (E)-5-Hydroxy-1-(4-hydroxy-3-methoxyphenyl)dec-1-en-3-one] | slightly stronger LasR affinity |  | 
CCCCCCCC(O)CC(=O)/C=C/c1ccc(O)c(OC)c1 (racemic) [Compound 21b, (E)-5-Hydroxy-1-(4-hydroxy-3-methoxyphenyl)dodec-1-en-3-one] | slightly stronger LasR affinity; also recorded: more potent than compound 1c |  | 
CCCCCC(O)CC(=O)CCc1ccc(O)cc1 (centres unmarked) [Compound 18a, 5-Hydroxy-1-(4-hydroxyphenyl)decan-3-one] | increased the LasR-antagonistic activity | the most potent in the series | 
CCCCCCCC(O)CC(=O)CCc1ccc(O)c(OC)c1 [Compound 1c, (S)-8-gingerol, reference compound] |  |  | Biofilm thickness (P. aeruginosa PA14 [2]; 10 μM compound, CLSM, Comstat2): 17.0 ± 0.4 μm; Biofilm volume (P. aeruginosa PA14 [2]; 10 μM compound, CLSM, Comstat2): 17.0 ± 0.4 μm^3/μm^2; Biofilm formation in CLSM images, in words (P. aeruginosa PA14 [2]; 10 μM, compared with DMSO or compound 1c): relatively thin and sparse
CCCCCCCC(=O)/C=C/c1ccc(O)c(OC)c1 [Compound 23a, (E)-1-(4-Hydroxy-3-methoxyphenyl)dec-1-en-3-one] | significantly weaker LasR-binding affinity | less inhibition of biofilm formation | 
CCCCCCCC(O)CC(=O)CCc1ccc(F)c(OC)c1 (centres unmarked) [Compound 16b, 1-(4-Fluoro-3-methoxyphenyl)-5-hydroxydodecan-3-one] |  | the most potent in the series; also recorded: stronger inhibition of biofilm formation than the known anti-biofilm agent (S)-6-gingerol | 
CCCCCCCC(O)CC(=O)CCc1ccc(F)cc1 (centres unmarked) [Compound 17b, 1-(4-Fluorophenyl)-5-hydroxydodecan-3-one] | the most potent among the synthesized compounds | the most potent in the series; also recorded: stronger inhibition of biofilm formation than the known anti-biofilm agent (S)-6-gingerol | 
